pKd: −log10 of the molar value.

In experiment [1] the target is T1, eEF1A1 (recombinant human eEF1A1) (Homo sapiens, UniProt P68104).
T1 sequence (P68104 1-462): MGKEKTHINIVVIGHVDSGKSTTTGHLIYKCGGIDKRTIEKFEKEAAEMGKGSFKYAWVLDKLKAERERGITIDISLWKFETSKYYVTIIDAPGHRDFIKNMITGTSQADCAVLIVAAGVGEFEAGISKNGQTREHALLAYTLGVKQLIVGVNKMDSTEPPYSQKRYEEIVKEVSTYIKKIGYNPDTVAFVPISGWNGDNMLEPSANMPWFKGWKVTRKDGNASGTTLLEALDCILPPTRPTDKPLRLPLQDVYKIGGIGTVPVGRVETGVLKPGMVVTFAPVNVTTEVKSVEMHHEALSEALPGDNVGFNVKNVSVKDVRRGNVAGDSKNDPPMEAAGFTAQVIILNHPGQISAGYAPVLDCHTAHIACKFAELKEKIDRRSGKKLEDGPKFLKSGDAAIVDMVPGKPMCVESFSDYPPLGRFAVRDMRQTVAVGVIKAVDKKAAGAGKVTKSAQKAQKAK
Kind of experiment: isothermal titration calorimetry (MicroCal PEAQ-ITC). Type of experiment: binding. An excerpt:
isothermal titration calorimetry (MicroCal PEAQ-ITC) on eEF1A1 (recombinant human eEF1A1) | ITC assay confirmed the affinity of Nef to eEF1A1 with the affinity constant of […]
For orientation: Isothermal titration calorimetry measures the heat released or taken up as one component is titrated into another.

Experiment [2] addresses T2, eEF1A1 (RAW264.7 macrophages) (Mus musculus, UniProt P10126).
T2 construct: endogenous protein in RAW264.7 cells or lysate, about 50 kDa band, identified by LC-MS/MS and Western blot
T2 sequence (P10126 2-462): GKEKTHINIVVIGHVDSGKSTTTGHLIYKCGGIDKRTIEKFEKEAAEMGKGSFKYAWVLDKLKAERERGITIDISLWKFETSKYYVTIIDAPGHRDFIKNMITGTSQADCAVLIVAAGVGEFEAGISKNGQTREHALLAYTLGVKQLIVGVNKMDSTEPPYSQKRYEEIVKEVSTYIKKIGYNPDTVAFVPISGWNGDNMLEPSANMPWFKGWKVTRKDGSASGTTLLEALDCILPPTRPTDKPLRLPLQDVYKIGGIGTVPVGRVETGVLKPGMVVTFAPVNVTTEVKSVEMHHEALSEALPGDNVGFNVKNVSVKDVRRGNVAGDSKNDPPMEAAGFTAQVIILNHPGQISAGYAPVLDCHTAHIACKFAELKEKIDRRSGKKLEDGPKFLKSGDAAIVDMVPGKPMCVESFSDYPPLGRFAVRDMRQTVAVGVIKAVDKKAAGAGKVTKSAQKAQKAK
Kind of experiment: CETSA and DARTS with Western blot; competition of probe pull-down. As to conditions: RAW264.7 lysate or cells; Nef 200 µM (CETSA methods) or 10 µM (figure legend); DARTS 2.5-10 µM with pronase. Type of experiment: biochemical. A general note: Immunoblotting shows a protein as a band on a membrane.

A word on the pKd: it is the Kd on a negative log10 scale, so that one unit is a factor of ten. Take `COc1ccc(C[C@@H]2c3cc(Oc4cc(C[C@@H]5c6cc(OC)c(OC)cc6CCN5C)ccc4O)c(OC)cc3CCN2C)cc1` [neferine]: in experiment [1], the pKd is 5.32. Besides, in experiment [2], the “CETSA and DARTS with Western blot; competition of probe pull-down” value was “Nef administration protected the eEF1A1 protein from temperature‐dependent degradation in cell lysis”.
